{"source": "patent US8338486B2", "about": "“Methods for the treatment of CNS-related conditions” (Adamas Pharmaceuticals, Inc., priority 2004, dated 2012)", "key": {"[1]": {"assay": "Release profile (cumulative fraction released; USP II Paddle system, water)", "format": "physicochemical", "conditions": "memantine-galantamine combination", "excerpt": "The cumulative fraction is the amount of drug substance released from the formulation matrix to the serum or gut environment (e.g., U.S. Pat. No. 4,839,177) or as measured with a USP II Paddle system using water as the dissolution medium."}, "[2]": {"conditions": "cited from earlier work; for Human PK T½ / Tmax: humans"}, "[3]": {"conditions": "humans; cited from earlier work"}}}
{"compound": "COc1ccc2c3c1O[C@H]1C[C@@H](O)C=C[C@@]31CCN(C)C2", "note": "[REMINYL ®/Galantamine]", "values": [{"measurement": "cum. fraction", "setting": "[1]; Time 1", "value": 0.2}, {"measurement": "cum. fraction", "setting": "[1]; Time 2", "value": 0.3}, {"measurement": "cum. fraction", "setting": "[1]; Time 4", "value": 0.4}, {"measurement": "cum. fraction", "setting": "[1]; Time 8", "value": 0.5}, {"measurement": "cum. fraction", "setting": "[1]; Time 12", "value": 0.6}, {"measurement": "cum. fraction", "setting": "[1]; Time 16", "value": 0.7}, {"measurement": "cum. fraction", "setting": "[1]; Time 20", "value": 0.8}, {"measurement": "cum. fraction", "setting": "[1]; Time 24", "value": 1.0}, {"measurement": "T½", "setting": "[2]; head of Table 4", "value": "T½ = 7 hrs"}, {"measurement": "Human PK T½", "setting": "[2]", "value": 7, "unit": "h"}, {"measurement": "Tmax", "setting": "[2]", "value": "1 to 2.5", "unit": "h"}]}
{"compound": "CC12CC3CC(C)(C1)CC(N)(C3)C2", "note": "[Memantine, 1-amino-3,5-dimethyladamantane]", "values": [{"measurement": "cum. fraction", "setting": "[1]; Time 1", "value": 0.2}, {"measurement": "cum. fraction", "setting": "[1]; Time 2", "value": 0.3}, {"measurement": "cum. fraction", "setting": "[1]; Time 4", "value": 0.4}, {"measurement": "cum. fraction", "setting": "[1]; Time 8", "value": 0.5}, {"measurement": "cum. fraction", "setting": "[1]; Time 12", "value": 0.6}, {"measurement": "cum. fraction", "setting": "[1]; Time 16", "value": 0.7}, {"measurement": "cum. fraction", "setting": "[1]; Time 20", "value": 0.8}, {"measurement": "cum. fraction", "setting": "[1]; Time 24", "value": 0.9}]}
{"compound": "C/C=C1\\[C@H]2C=C(C)C[C@]1(N)c1ccc(=O)[nH]c1C2", "note": "[HUPERZINE-A]", "values": [{"measurement": "Human PK T½", "setting": "[2]", "value": 4.8, "unit": "h"}, {"measurement": "Tmax", "setting": "[2]", "value": 1.3, "unit": "h"}]}
{"compound": "CC(N)C12CC3CC(CC(C3)C1)C2", "note": "(stereo not drawn) [Rimantadine, 1-(1-aminoethyl)adamantane]", "values": [{"measurement": "Dose Dependent Tox", "setting": "[3]", "value": "Insomnia"}]}
{"compound": "CCN(C)C(=O)Oc1cccc([C@H](C)N(C)C)c1", "note": "[EXELON ®/Rivastigmine]", "values": [{"measurement": "Main Dose-Dependent Adverse Event", "setting": "[3]", "value": "Nausea, vomiting"}, {"measurement": "Tmax", "setting": "[2]", "value": "1 to 2.5", "unit": "h"}]}
